Read-outs that look alike come from different tables or passages of the source.
How the values were obtained:
[1] = Stability of the analytes in rat plasma QC samples under different storage conditions; type: in vitro ADME
Protocol: QC samples were […], 50, 125, 400 ng/mL for FE, 20, 100, 400 ng/mL for PRO, 100, 200, 500 ng/mL for CH, 100, 200, 500 ng/mL for PE, 200, 400, 800 ng/mL for SAB respectively. All the stock solutions, working solutions and QC samples were stored at 4 ℃ until use. […] The stability of all QC samples was determined by the freshly calibration curve.

[2] = Pharmacokinetics of six compounds in rat plasma after oral administration of PYQ (HPLC-MS/MS); type: in vivo, Sprague–Dawley rats; conditions: for CL/F: n = 6, read-out: CLz/F (converted); for Vd/F: n = 6, read-out: Vz/F; for AUC(0-inf) / AUC(0-t) / AUC(0-∞): non-compartmental; for MRT: read-out: mean residence time (MRT)
Protocol: Animal experiments referred to our previous manuscript. Female Sprague–Dawley rats (n = 10), weighing 200 ± 20 g, were purchased from the Experimental Animal Center of Southern Medical University (Guangzhou, China). These rats were kept adaptively for one week before the experiment, with a temperature of 23 ± 2 ℃, humidity of 40 ± 5%, 12 h light/dark cycle, and random-fed with water and food available. The rats were fasted overnight before administration.
In our previous study, three different doses (5, 10, and 20 mL/kg/day) of PYQ were used to explore the pharmacodynamic effects of it. According to the clinical dose, the PYQ was orally administered to rats at a dose of 8 mL/kg in this experiment. The plasma of 500 µL was obtained via the retinal venous plexus at 0.083, 0.25, 0.5, 0.75, 1, 2, 4, 8, 12 and 24 h after gavage administration. Then all samples were centrifuged at 4 ℃ for 5 min at 8,000 rpm, and were stored at -80 ℃ in refrigerator until further analysis.
For the pharmacokinetic study of PRO, PE, AST, FE, and CH, 100 µL plasma sample was mixed with 10 µL internal standard (IS, 2 µg/mL naringin), and 700 µL methanol was added for protein sedimentation. The mixture was vortexed for 6 min and centrifuged at 13, 000 rpm for 15 min at 4 ℃. Next, the supernatant was dried in a vacuum drying oven and vortexed with 100 µL of 50% methanol for 6 min, and then the mixture was centrifuged at 13, 000 rpm for 30 min at 4 ℃, and the supernatant was filtered by 0.22 µM filter membrane for HPLC–MS/MS analysis.
For the pharmacokinetic study of SAB, 100 µL plasma was mixed with 10 µL IS (2 µg/mL naringin) and then acidified by mixing with 25 µL of 20% hydrochloric acid. After addition of 1 mL of ethyl acetate, the mixture was vortexed for 6 min and centrifuged at 13,000 rpm for 15 min. The organic layer was transferred to an Eppendorf tube and dried in a vacuum drying oven. The residue was dissolved in 100 µL methanol. After centrifugation at 13,000 rpm for 30 min, the supernatant was filtered by 0.22 µM filter membrane for HPLC–MS/MS analysis.
In this study, the negative ESI multiple reaction monitoring (MRM) mode of AB Sciex API-4000 LC–MS/MS Systems was used to measure SAB, PRO, PE, AST, FE, and CH in rat plasma, respectively. The following setups of the analyzers were used: the temperatures were all 500 ℃; GS1, 55 psi; GS2, 55 psi; curtain gas, 10 psi.
For the chromatographic analysis of PRO, PE, AST, FE, and CH, the chromatographic column used was Agilent Poroshell 120 EC-C18 (100 mm × 3.0 mm, 2.7 µm), and the column temperature was maintained at 25 ℃. The mobile phase was consisted of A (methanol) and B (0.2% aqueous formic acid), and the flow rate was 0.4 mL/min. The gradient elution was carried out as follows: 10% A at 0 ~ 1 min, 10% A-95% A at 1 ~ 2 min, 95% A at 2 ~ 5 min, 95% A-10% A at 5 ~ 5.1 min, 10% A at 5.1 ~ 6 min. 5 µL sample was injected into the system for analysis.
For the chromatographic analysis of SAB, the chromatographic column used was ZORBAX SB-C18 (100 mm × 2.1 mm, 3.5 µm), and the column temperature was maintained at 25 ℃. The mobile phase was consisted of A (methanol) and B (0.2% aqueous formic acid), and the flow rate was 0.4 mL/min. The gradient elution was carried out as follows: 30% A at 0 ~ 0.5 min, 30% A-90% A at 0.5 ~ 1 min, 90% A at 1 ~ 4.5 min, 90% A-30% A at 4.5 ~ 4.6 min, 30% A at 4.6 ~ 6 min. 5 µL sample was injected into the system for analysis.
The pharmacokinetic parameters were calculated by non-compartmental model of the DAS 2.0 software package. The data were presented as mean ± standard deviation (SD). Statistical calculations were performed using SPSS statistical software, and a value of p < 0.05 was denoted statistically significant difference.

[3] = high QC level, nominal ng/mL: AST 500, FE 400, PRO 400, CH 500, PE 500, SAB 800, n = 6
[4] = low QC level, nominal ng/mL: AST 100, FE 50, PRO 20, CH 100, PE 100, SAB 200, n = 6
[5] = middle QC level, nominal ng/mL: AST 200, FE 125, PRO 100, CH 200, PE 200, SAB 400, n = 6
[6] = PYQ orally 8 mL/kg, mean ± SD, n = 6
[7] = female, Sprague-Dawley, po, PYQ orally 8 mL/kg, mean ± SD, n = 6
[8] = female, Sprague-Dawley, po, PYQ orally 8 mL/kg, mean ± SD
[9] = female, Sprague-Dawley, po, PYQ orally 8 mL/kg, mean ± SD, n = 6, read-out: Cmax
[10] = female, Sprague-Dawley, po, PYQ orally 8 mL/kg, mean ± SD, n = 6, read-out: AUC(0-t)
[11] = female, Sprague-Dawley, po, after PYQ administration
[12] = female, Sprague-Dawley, po, PYQ orally 8 mL/kg, mean ± SD, n = 6, read-out: tmax

| half-life [2, 7] [h] | CL/F [2, 8] [mL/min/kg] | Cmax [2, 9] [ng/mL] | Vd/F [2, 8] [L/kg] | AUC(0-inf) [2, 7] [ng·h/mL] | AUC(0-t) [2, 10] [ng·h/mL] | MRT [2, 11] [h] | Tmax [2, 12] [h] | Compound | In 56 ℃ for 1 h measured value [1, 3] | Room temperature 24 h measured value [1, 3] | Three freeze-thaw cycles measured value [1, 3] | In 56 ℃ for 1 h measured value [1, 4] | Room temperature 24 h measured value [1, 4] | Three freeze-thaw cycles measured value [1, 4] | In 56 ℃ for 1 h measured value [1, 5] | Room temperature 24 h measured value [1, 5] | Three freeze-thaw cycles measured value [1, 5] | Tmax [2, 6] [h] | t1/2 [2, 6] [h] | Cmax [2, 6] [ng/mL] | other results |
| --- | --- | --- | --- | --- | --- | --- | --- | --- | --- | --- | --- | --- | --- | --- | --- | --- | --- | --- | --- | --- | --- |
| 0.9 ± 0.02 | 230 | 1200 ± 150 | 17.9 ± 3.28 | 1480 ± 240 | 1430 ± 230 | ≤ 3 | – | COc1cc(/C=C/C(=O)O)ccc1O [FE, ferulic acid] | 399.13 ± 3.26 | 403.59 ± 7.84 | 400.59 ± 6.95 | 48.33 ± 2.76 | 49.14 ± 2.35 | 49.41 ± 1.85 | 123.42 ± 1.76 | 122.72 ± 2.65 | 124.36 ± 2.46 | 0.25 ± 0 | – | – | – |
| – | 153 | 2040 ± 590 | 31.3 ± 4.08 | 2220 ± 310 | 2210 ± 310 | ≤ 3 | 0.25 | C[C@@]12C[C@@]3(O)O[C@@H](O1)[C@]1(COC(=O)c4ccccc4)[C@H]3C[C@@]12O[C@@H]1O[C@H](CO)[C@@H](O)[C@H](O)[C@H]1O [PE, paeoniflorin] | 495.87 ± 6.50 | 499.23 ± 2.58 | 492.85 ± 7.60 | 95.32 ± 1.06 | 99.44 ± 2.43 | 99.68 ± 2.83 | 196.25 ± 4.08 | 199.64 ± 2.59 | 197.55 ± 3.60 | – | 2.37 ± 0.20 | – | – |
| – | – | – | – | – | – | – | – | salvianolic acid B [SAB] | 791.11 ± 5.98 | 792.27 ± 3.94 | 790.71 ± 3.52 | 196.22 ± 3.40 | 208.88 ± 8.46 | 194.10 ± 8.56 | 395.20 ± 10.70 | 391.06 ± 6.16 | 388.99 ± 6.75 | 0.29 ± 0.10 | 7.60 ± 3.34 | 1590 ± 330 | CLz/F [2, 6]: 91.3 ± 11.3 mL/min/kg; Vz/F [2, 6]: 59.83 ± 25.48 L/kg; AUC(0-t) [2, 6]: 3400 ± 450 ng·h/mL; AUC(0-∞) [2, 6]: 3700 ± 460 ng·h/mL; mean residence time (MRT) ([2]; after PYQ administration): 5.67 ± 0.66 h |
| 3.42 ± 0.34 | 159 | 2270 ± 350 | 45.4 ± 6.31 | 2090 ± 200 | 2080 ± 200 | ≤ 3 | 0.25 | C[C@@H]1O[C@@H](O[C@H]2C(=O)c3c(O)cc(O)cc3O[C@@H]2c2ccc(O)c(O)c2)[C@H](O)[C@H](O)[C@H]1O [AST, astilbin] | 495.21 ± 8.43 | 498.07 ± 3.95 | 497.15 ± 6.61 | 98.46 ± 2.77 | 99.68 ± 2.31 | 97.89 ± 4.06 | 194.85 ± 6.53 | 199.01 ± 3.99 | 193.37 ± 7.61 | – | – | – | – |
| 1.86 ± 0.21 | 356 | – | 57.2 ± 7.48 | – | 920 ± 60 | ≤ 3 | – | O=C(/C=C/c1ccc(O)c(O)c1)O[C@@H]1C[C@](O)(C(=O)O)C[C@@H](O)[C@H]1O [CH, chlorogenic acid] | 489.60 ± 8.91 | 499.00 ± 6.02 | 485.90 ± 9.73 | 97.22 ± 3.31 | 99.91 ± 2.94 | 98.55 ± 2.93 | 195.56 ± 7.88 | 200.03 ± 9.56 | 191.77 ± 8.91 | – | – | 1370 ± 60 | AUC(0-∞) [2, 6]: 940 ± 90 ng·h/mL |

| Compound | half-life [2, 7] [h] | CL/F [2, 8] [mL/min/kg] | Cmax [2, 9] [ng/mL] | Vd/F [2, 8] [L/kg] | AUC(0-inf) [2, 7] [ng·h/mL] | AUC(0-t) [2, 10] [ng·h/mL] | MRT [2, 11] [h] | Tmax [2, 12] [h] | In 56 ℃ for 1 h measured value [1, 3] | Room temperature 24 h measured value [1, 3] | Three freeze-thaw cycles measured value [1, 3] | In 56 ℃ for 1 h measured value [1, 4] | Room temperature 24 h measured value [1, 4] | Three freeze-thaw cycles measured value [1, 4] | In 56 ℃ for 1 h measured value [1, 5] | Room temperature 24 h measured value [1, 5] | Three freeze-thaw cycles measured value [1, 5] | Tmax [2, 6] [h] | t1/2 [2, 6] [h] | Cmax [2, 6] [ng/mL] | other results |
| --- | --- | --- | --- | --- | --- | --- | --- | --- | --- | --- | --- | --- | --- | --- | --- | --- | --- | --- | --- | --- | --- |
| O=Cc1ccc(O)c(O)c1 [PRO, protocatechualdehyde] | 0.93 ± 0.06 | 310 | 1430 ± 220 | 24.9 ± 1.96 | 1080 ± 70 | 1050 ± 60 | ≤ 3 | – | 394.26 ± 8.01 | 398.27 ± 4.21 | 395.66 ± 7.14 | 19.88 ± 0.43 | 20.81 ± 0.85 | 20.62 ± 1.06 | 98.21 ± 2.33 | 100.34 ± 1.48 | 97.77 ± 2.49 | – | – | – | Tmax ([2]; female, Sprague-Dawley, in vivo, po, PYQ orally 8 mL/kg, mean ± SD, n = 6, read-out: tmax): 0.25 h |

From publication PMC9727977, “Pharmacokinetics and pharmacodynamics of bioactive compounds in Penyanqing preparation in THP-1 inflammatory cells induced by Lipopolysaccharide” (BMC Complementary Medicine and Therapies, 2022)
